Earlier results as cited in patent US11951146B2, “Stimulation of NK cell activity by using a combination of broccoli, Nigella Sativa, Green Tea, and pterostilbene alone and together with metformin” (Therapeutic Solutions International, Inc., priority 2020, dated 2024).
Like-named read-outs stand apart in the source and are kept apart here. Each block holds one compound with its values, some of them ahead of it.

Experiments:
[1] = system: lipopolysaccharide-induced inflammatory reactions
sepsis = details: for concentration of IL-la: controls 1187.0±278.64
LPS-induced ARDS [2] = details: EGCG 10 mg/kg ip
[3] = system: lipopolysaccharide-activated macrophages
[4] = system: myocardial ischemia and reperfusion; details: EGCG 10 mg/kg intravenously then 10 mg/kg/h infusion
polymicrobial sepsis [5] = details: 10 mg/kg intraperitoneally, 72 h after CL2P
polymicrobial sepsis [6] = details: 10 mg/kg intraperitoneally at 1 and 6 h after CL2P and every 12 h
[7] = system: lethal endotoxemia / lethal sepsis
experimental colitis = details: 50 and 100 mg/kg/day EGCG
LPS-induced ARDS [8] = system: LPS-induced ARDS
[9] = system: LPS-challenged macrophages; details: pre-incubated 6 h, then LPS 24 h
[10] = system: primary peritoneal macrophages
[11] = rat, in vivo
[12] = system: interleukin-1, interleukin-6, interleukin-8, TNF-alpha

Compound: CC1=CC(=O)C(C(C)C)=CC1=O [thymoquinone]
lipopolysaccharide-induced inflammatory reactions [1]: suppressed effectively
concentration of nitric oxide ([1]; lipopolysaccharide-induced): reduced significantly
concentration of IL-la (sepsis; 0.75 mg/kg thymoquinone dose): 310.8 ± 70.93 pg/mL
IL-1β levels (sepsis; 0.75 mg/kg thymoquinone, controls 5505.2±333.96): 2885.0 ± 553.98 pg/mL
concentration of IL-la (sepsis; 1 mg/kg group): 428.3 ± 71.32 pg/mL
levels of TNF-α and IL-2 (sepsis; P values=0.1817 and 0.0851): relatively lower levels
reduction of mortality (sepsis; mice, sepsis): 80-90%
renal and hepatic biomarker profiles (sepsis; mice, sepsis): improved

Compound: epigallocatechin-3-gallate [EGCG]
expression of IκB-α (LPS-induced ARDS [2]): increased the expression
expression of TLR-4, MyD88, TRIF and p-p65 in the lung tissue (LPS-induced ARDS [2]): alleviated the expression
expression of TNF-α, IL-1β and IL-6 in lung, serum and bronchoalveolar lavage fluid (LPS-induced ARDS [2]): significantly decreased
expression of p65 (LPS-induced ARDS [2]): had no influence
NO production ([3]; cells cotreated with EGCG and LPS): Inhibition
activation of nuclear factor-kappaB ([3]; electrophoretic mobility shift assay): blocked the activation
myocardial damage and myeloperoxidase activity [4]: reduced
plasma IL-6 and creatine phosphokinase levels [4]: decreased
survival (polymicrobial sepsis [5]): significantly improved
hypotension (mean arterial blood pressure) (polymicrobial sepsis [6]): significantly improved
rescue from lethal sepsis ([7]; first dose 24 hours after cecal ligation and puncture): rescued
protection against lethal endotoxemia ([7]; intraperitoneal): protected
TNF-α-induced nuclear factor-κB (NF-κB) activity (macrophage foam cells): inhibition
TNF-α-induced downregulation of ABCA1 and decrease in cholesterol efflux to apoA1 (macrophage foam cells; pretreatment with EGCG): attenuated
HIF-la and STAT3 protein expression in the colon (experimental colitis): decreasing
plasma levels of IL-1β and TGF-β1 (experimental colitis): increasing
release of IL-6 and IL-17 (experimental colitis): reduce the release

Compound: C[S+]([O-])CCCCN=C=S (stereo not shown) [sulforaphane, 1-isothiocyanato-4-(methylsulfinyl)-butane]
Nrf2/antioxidant response element (ARE) pathway (LPS-induced ARDS [8]; pre-treatment): activated
LDH activity, wet-to-dry ratio of the lungs, serum IL-6 and TNF-α, nuclear factor-κB protein expression (LPS-induced ARDS [8]; sulforaphane 50 mg/kg, LPS 5 mg/kg 3 days later): significantly decreased
PGE2 production, COX-2 and MMP-9 protein expression, iNOS activity (LPS-induced ARDS [8]; sulforaphane 50 mg/kg, LPS-induced ALI): significantly inhibited
expression of NO and cytokines [9]: prevent the expression
HO-1 expression ([10]; LPS-stimulated Nrf2 (+/+) primary peritoneal macrophages): significantly augmented
LPS-stimulated mRNA expression, protein expression and production of TNF-alpha, IL-1beta, COX-2 and iNOS ([10]; Nrf2 (+/+) primary peritoneal macrophages, pretreatment): potently inhibited
anti-inflammatory effect ([10]; Nrf2 (−/−) primary peritoneal macrophages): attenuated

bioavailability [11]: 80%
Compound: trans-3,5-dimethoxy-4-hydroxystilbene [pterostilbene]
inhibition of interleukin-1, interleukin-6, interleukin-8 and TNF-alpha [12]: inhibition
